Where a SMILES comes first, the peptide text is derived from it. [ ]: non-standard residue; d: D form. The star is where a group is joined. X1 = O=[N+]([O-])c1ccc(NCCCCCN*)c([N+](=O)[O-])c1; 2Abz = Nc1ccccc1C(=O)O; Ahx = NCCCCCC(=O)O
Key:
Type in all cases: biochemical
Faktor XIII [1] = biological target: T1, Faktor XIII (Homo sapiens, UniProt P00488); assay: Comparison of fluorescence-labelled transglutaminase peptide substrates, kinetic measurement (Beispiel 5); details: 900 µl thrombin-containing 50 µM peptide solution + 100 µl Humanplasma
T1 construct: 100 µl humanem Plasma (durch Thrombin aktiviert); from tissue; host or cells: human plasma
T1 sequence (P00488 39-732): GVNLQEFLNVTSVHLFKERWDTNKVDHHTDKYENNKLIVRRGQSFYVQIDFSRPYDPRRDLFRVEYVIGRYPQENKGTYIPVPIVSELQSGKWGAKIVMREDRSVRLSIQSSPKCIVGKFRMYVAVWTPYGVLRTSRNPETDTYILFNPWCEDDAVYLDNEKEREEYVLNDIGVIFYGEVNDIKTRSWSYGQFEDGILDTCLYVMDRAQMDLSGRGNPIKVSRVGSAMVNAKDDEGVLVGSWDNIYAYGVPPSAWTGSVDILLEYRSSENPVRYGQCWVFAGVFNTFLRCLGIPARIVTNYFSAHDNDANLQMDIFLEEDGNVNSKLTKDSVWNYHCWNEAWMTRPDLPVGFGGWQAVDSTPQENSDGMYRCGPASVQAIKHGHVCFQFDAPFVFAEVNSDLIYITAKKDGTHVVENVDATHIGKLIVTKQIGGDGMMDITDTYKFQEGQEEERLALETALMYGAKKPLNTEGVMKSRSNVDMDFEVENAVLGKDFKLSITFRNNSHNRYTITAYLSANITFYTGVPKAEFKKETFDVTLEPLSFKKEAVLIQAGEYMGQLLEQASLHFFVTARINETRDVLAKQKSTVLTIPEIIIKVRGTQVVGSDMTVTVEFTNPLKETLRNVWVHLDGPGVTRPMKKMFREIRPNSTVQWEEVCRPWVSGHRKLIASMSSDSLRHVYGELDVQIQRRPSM
Experimental: Vergleich von Transglutaminasepeptidsubstraten
Für den Vergleich verschiedener mit fluoreszierenden Gruppen markierter Transglutaminasepeptidsubstrate wurden kinetische Messungen unter identischen Bedingungen durchgeführt. Dazu wurden zu 900 µl einer thrombinhaltigen 50 µM Lösung des Peptids 100 µl Humanplasma zugesetzt. Diese Bedingungen entsprechen denen, die bei heutzutage üblichen Faktor XIII - Messungen (wie bei dem Marktführer: Berichrom) zum Einsatz kommen. […] Auch die Verwendung von Abz als Fluorophor (Abz-Ahx-Glu(CAD-DNP)-Gln-Ile-Val, (Parameswaran et al.,
Um die Substrateigenschaften gegenüber den Substraten des Standes der Technik zu verbessern und somit klinisch relevante Messungen zu ermöglichen, wurde ausgehend von Verbindung 1 durch routinemäßiges Experimentieren das Peptidrückgrat so verändert, dass ein Substrat entstand, das durch FXIII schneller umgesetzt werden sollte (DNS-Ahx-Glu(CAD-DNP)-Glu-Gln-Val-Ser-Pro-Leu-Thr-Leu-Leu-Lys, 2).
Gegenüber dem Peptid, das in der Literatur (Kärpäti et al.) beschrieben wird, ist die Verbindung 2 um eine Aminosäure am N-Terminus verkürzt. Dahinter stand die Absicht, die im Stand der Technik bekannte und oben beschriebene fluorogene Teilstruktur zu erhalten. Es ist aber bekannt, dass gerade die Aminsäuren, die der Bindungsstelle von Enzymen direkt benachbart sind, besonders großen Einfluss auf die Substrateigenschaften von Peptiden, bzw. Proteinen haben. Deshalb wurde in einer weiteren Modifikation von Verbindung 1 die Verbindung 3 hergestellt. (DNS-Ahx-Asn-Glu(CAD-DNP)-Glu-Gln-Val-Ser-Pro-Leu-Thr-Leu-Leu-Lys, 3).
Beispielhaft wird dies im Vergleich in Fig. 6 anhand der Reaktion von 100 µl humanem Plasma (durch Thrombin aktiviert) und einer 50 µM Lösung des Peptides Abz-Asn-Glu(CAD-DNP)-Glu-Gln-Val-Ser-Pro-Leu-Thr-Leu-Leu-Lys (Verbindung 2)) gezeigt. Dem Vergleich der Strukturen und der Fluoreszenzdaten ist zu entnehmen, dass diese Wirkung auch für andere Transglutaminasen und andere Peptide Gültigkeit hat.

FXIII = biological target: T2, FXIII (Homo sapiens, UniProt P00488); assay: Kinetic measurement of FXIII in plasma (Beispiel 1); details: in Gegenwart von 5 mM Glycinethylester, otherwise identical conditions; 100 µl Citratplasma, 20 NIH Units Thrombin, 37°C, Exc. 310 nm, Em. 427 nm
T2 construct: Kinetische Messung von FXIII in Plasmen; from tissue; host or cells: plasma
T2 sequence (P00488 1-732): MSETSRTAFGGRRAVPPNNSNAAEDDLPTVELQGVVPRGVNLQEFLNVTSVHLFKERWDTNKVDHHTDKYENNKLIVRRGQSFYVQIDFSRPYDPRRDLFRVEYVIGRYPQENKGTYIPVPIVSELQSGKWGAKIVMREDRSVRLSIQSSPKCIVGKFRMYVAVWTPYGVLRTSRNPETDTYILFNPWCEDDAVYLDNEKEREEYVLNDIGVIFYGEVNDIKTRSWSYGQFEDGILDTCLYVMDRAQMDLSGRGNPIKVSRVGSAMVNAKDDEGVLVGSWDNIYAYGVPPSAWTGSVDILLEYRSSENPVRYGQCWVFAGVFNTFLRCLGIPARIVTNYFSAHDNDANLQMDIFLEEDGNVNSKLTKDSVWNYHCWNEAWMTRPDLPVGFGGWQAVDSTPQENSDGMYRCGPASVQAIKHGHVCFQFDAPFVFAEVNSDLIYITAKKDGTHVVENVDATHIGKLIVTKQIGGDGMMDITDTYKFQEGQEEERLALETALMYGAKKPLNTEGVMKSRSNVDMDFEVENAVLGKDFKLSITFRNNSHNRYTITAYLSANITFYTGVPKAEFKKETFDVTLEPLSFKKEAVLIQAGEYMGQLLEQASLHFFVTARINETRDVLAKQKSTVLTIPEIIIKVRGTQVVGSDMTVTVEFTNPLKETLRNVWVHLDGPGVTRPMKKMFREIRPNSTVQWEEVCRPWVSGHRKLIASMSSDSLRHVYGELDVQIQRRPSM
Source text: Kinetische Messung von FXIII in Plasmen
Substratpeptid: Abz-Asn-Glu(CAD-DNP)-Glu-Gln-Val-Ser-Pro-Leu-Thr-Leu-Leu-Lys (2)
Die Substratsequenz Asn-Gln-Glu-Gln-Val-Ser-Pro-Leu-Thr-Leu-Leu-Lys ist einem natürlichen Substrat des FXIII entnommen und wurde bereits zur kinetischen Messungen von FXIII in der Literatur beschrieben (Kärpäti L. et al., Clin Chem., 46:12, 2000, 1946-55). Durch die erfindungsgemäße Modifikation dieses Peptides kann eine kinetische Messung in Plasmen durchgeführt werden (unterer Graph in Fig. 3). Die Messung wurde in diesem speziellen Fall wie folgt durchgeführt.

[2] = biological target: T3, gereinigte rekombinante humane Transglutaminase 2 (Homo sapiens, UniProt P21980); assay: Selectivity of measurement of different transglutaminases, 2. Ansatz (Beispiel 4); details: substrate 50 µM, rhHis6TG2 0,25 µM, 6 % DMSO, Exc. 310 nm, Em. 427 nm, 20 min
T3 construct: His6
T3 sequence (P21980 1-687): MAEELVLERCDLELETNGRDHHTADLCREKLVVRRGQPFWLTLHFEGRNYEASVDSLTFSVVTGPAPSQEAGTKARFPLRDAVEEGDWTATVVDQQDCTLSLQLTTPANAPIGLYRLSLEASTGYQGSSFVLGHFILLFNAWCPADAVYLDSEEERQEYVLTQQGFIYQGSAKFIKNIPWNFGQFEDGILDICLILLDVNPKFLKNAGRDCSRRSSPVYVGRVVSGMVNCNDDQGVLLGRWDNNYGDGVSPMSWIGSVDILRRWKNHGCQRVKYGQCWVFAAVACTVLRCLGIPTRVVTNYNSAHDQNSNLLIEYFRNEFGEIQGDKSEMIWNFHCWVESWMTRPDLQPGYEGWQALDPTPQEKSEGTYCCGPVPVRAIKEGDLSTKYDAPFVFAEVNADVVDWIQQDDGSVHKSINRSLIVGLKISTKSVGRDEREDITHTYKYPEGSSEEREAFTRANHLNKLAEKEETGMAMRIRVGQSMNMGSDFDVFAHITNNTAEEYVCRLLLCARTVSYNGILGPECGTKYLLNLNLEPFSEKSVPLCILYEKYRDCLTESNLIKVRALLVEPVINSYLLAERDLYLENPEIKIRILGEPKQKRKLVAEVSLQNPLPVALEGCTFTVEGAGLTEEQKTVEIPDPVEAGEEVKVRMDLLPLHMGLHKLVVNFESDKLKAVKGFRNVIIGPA
Source text: (§1) Selektivität der Messungen verschiedener Transglutaminasen
2. Ansatz: Abz-Asn-Glu(CAD-DNP)-Glu-Gln-Val-Ser-Pro-Leu-Thr-Leu-Leu-Lys (2), Transglutaminase: gereinigte rekombinante humane Transglutaminase 2

Faktor XIII [3] = biological target: T4, Faktor XIII (Homo sapiens, UniProt P00488); assay: Selectivity of measurement of different transglutaminases, 1. Ansatz (Beispiel 4); details: substrate 50 µM, 100 µl Citratplasma, 6 % DMSO, Exc. 310 nm, Em. 427 nm, 20 min
T4 construct: 100 µl Citratplasma; from tissue; host or cells: citrate plasma
T4 sequence (P00488 1-732): T2 sequence (P00488 1-732)
Source text: as §1
1. Ansatz: Substratpeptid: Abz-Ala-Pro-Glu(CAD-DNP)-Gln-Glu-Ala (3), Transglutaminase: Faktor XIII

| Compound | Steigerung der Fluoreszenz (Faktor XIII [1]) | other results |
| --- | --- | --- |
| DNS-Ahx-Asn-Glu(CAD-DNP)-Glu-Gln-Val-Ser-Pro-Leu-Thr-Leu-Leu-Lys | nicht zu dem gewünschten Ergebnis | – |
| DNS-Ahx-Glu(CAD-DNP)-Glu-Gln-Val-Ser-Pro-Leu-Thr-Leu-Leu-Lys | nicht zu einer Verbesserung | – |
| DNS-Ahx-Gln(CAD-DNP)-Glu-lle-Val-OH [Verbindung 1] | keine messbare Steigerung der Fluoreszenz | – |
| CC[C@H](C)[C@H](NC(=O)[C@H](CCC(N)=O)NC(=O)[C@H](CCC(=O)NCCCCCNc1ccc([N+](=O)[O-])cc1[N+](=O)[O-])NC(=O)CCCCCNC(=O)c1ccccc1N)C(=O)N[C@H](C(=O)O)C(C)C [Abz-Ahx-Glu(CAD-DNP)-Gln-Ile-Val] (H-[2Abz][Ahx]E(X1)QIV-OH) | keine messbare Steigerung der Fluoreszenz | – |
| 2-Aminobenzoyl-L-asparaainyl-N^δ-[N-(2,4-dinitrophenyl)1-5-aminopentyl]-L-glutaminyl-L-glutamyl-L-glutaminyl-L-valinyl-L-serinyl-L-prolinyl-L-leucinyl-L-threoninyl-L-leucinyl-L-leucin-L-lysin [Verbindung 2] | wesentliche Verbesserung der Fluoreszenzsteigerung | Signal (Fluoreszenzänderung) (FXIII): Signal zusätzlich verstärkt; Anstieg der Fluoreszenz [2]: Ergebnis: kein Anstieg der Fluoreszenz |
| C[C@H](NC(=O)[C@H](CCC(=O)O)NC(=O)[C@H](CCC(N)=O)NC(=O)[C@H](CCC(=O)NCCCCCNc1ccc([N+](=O)[O-])cc1[N+](=O)[O-])NC(=O)[C@@H]1CCCN1C(=O)[C@H](C)NC(=O)c1ccccc1N)C(=O)O [Verbindung 3] (H-[2Abz]APE(X1)QEA-OH) | – | Anstieg der Fluoreszenz (Faktor XIII [3]): Ergebnis: kein Anstieg der Fluoreszenz |

— EP1781807B1, “FLUORESCENCE-BASED KINETIC DETERMINATION OF TRANSGLUTAMINASE ACTIVITY” (N-Zyme BioTec GmbH, priority 2004, dated 2006)
